Data: patent US20250325531A1, “TREATMENT OF SYSTOLIC DYSFUNCTION” (MyoKardia, Inc., priority 2024, published 2025)

Test system: patients with stable HFrEF
Test: Safety and tolerability (TEAEs, serum troponin, ECG, Holter) in MAD cohorts, patients with stable HFrEF
Format: in vivo, human
Experimental: During the study, multiple evaluations were performed that included: serial TTE assessments (11-14 TTEs per patient on Days 1, 2, 3, 4, 7, 9, 10 and 11); PK sampling (PK sample collected concomitantly with every post-randomization echocardiogram); ECGs (on Days 2, 3, 4, 7, 9, 10, 11 and 16); troponin (collected concomitantly with every post-randomization ECG); and safety laboratory assessments. Confined patients underwent continuous telemetry. Holter monitoring was performed in all patients at baseline (Days 1-2) and at the end of double-blind treatment (Days 7-9). Vital signs were collected daily.
Safety and efficacy assessments were conducted by measuring patients' vital signs and laboratory parameters; performing TTE to measure, e.g., systolic ejection time; performing electrocardiograms (e.g., 12-lead ECG), real-time ECG telemetry (e.g., at least 3-lead), and Holter ECG; and measuring levels of troponin (e.g., troponin I and/or troponin T) and 4β-hydroxycholesterol.
Abnormal and/or rising troponin values (as per investigator's judgment and taking into account potential baseline troponin elevation frequently observed in heart failure) led to the patient being clinically evaluated for possible myocardial ischemia. […] The entire clinical context (e.g., signs, symptoms, new ECG changes, new troponin, and CK-MB abnormalities) was evaluated and correlated with any other relevant clinical findings, patient's medical history, and laboratory data to determine the clinical significance of the findings. Troponin results performed on Day 2 of Part 1 (SAD) and Day 10 of Part 2 (MAD) at a local lab were reviewed prior to the patient being discharged the next day.

[1] = Cohort A + C 75 mg BID (n = 15)

Cn1cc(S(=O)(=O)[C@@](C)(F)C2CCN(C(=O)Nc3ccon3)CC2)c(C(F)F)n1 [Compound I, (R)-4-(1-((3-(difluoromethyl)-1-methyl-1H-pyrazol-4-yl)sulfonyl)-1-fluoroethyl)-N-(isoxazol-3-yl) piperidine-1-carboxamide]
Number of patients with any AE leading to death [1]: 0
Number of patients with any TEAE [1]: 6
Number of patients with any TEAE leading to permanent treatment discontinuation [1]: 0
Number of patients with any serious TEAE [1]: 1
TEAE Abdominal discomfort, n patients [1]: 0
TEAE Alanine aminotransferase increased, n patients [1]: 1
TEAE Anemia, n patients [1]: 1
TEAE Application site erosion, n patients [1]: 0
TEAE Arthralgia, n patients [1]: 0
TEAE Arthropod bite, n patients [1]: 0
TEAE Back pain, n patients [1]: 0
TEAE Blood creatine phosphokinase increased, n patients [1]: 0
TEAE Blood creatinine increased, n patients [1]: 0
TEAE Cough, n patients [1]: 1
TEAE Dermatitis contact, n patients [1]: 0
TEAE Dry eye, n patients [1]: 0
TEAE Fatigue, n patients [1]: 2
TEAE Fluid overload, n patients [1]: 0
TEAE Gingival pain, n patients [1]: 0
TEAE Hyperkalemia, n patients [1]: 0
TEAE Infusion site erythema, n patients [1]: 0
TEAE Nasopharyngitis, n patients [1]: 0
TEAE Rash, n patients [1]: 0
TEAE Renal failure, n patients [1]: 0
TEAE Renal impairment, n patients [1]: 0
TEAE Testicular pain, n patients [1]: 0
TEAE Troponin increased, n patients [1]: 1
TEAE Ventricular tachycardia, n patients [1]: 0
Number of patients with any AE leading to death (Cohort B 50 mg BID (n = 9)): 0
Number of patients with any TEAE (Cohort B 50 mg BID (n = 9)): 7
Number of patients with any TEAE leading to permanent treatment discontinuation (Cohort B 50 mg BID (n = 9)): 0
Number of patients with any serious TEAE (Cohort B 50 mg BID (n = 9)): 0
TEAE Abdominal discomfort, n patients (Cohort B 50 mg BID (n = 9)): 1
TEAE Alanine aminotransferase increased, n patients (Cohort B 50 mg BID (n = 9)): 1
TEAE Anemia, n patients (Cohort B 50 mg BID (n = 9)): 0
TEAE Application site erosion, n patients (Cohort B 50 mg BID (n = 9)): 1
TEAE Arthralgia, n patients (Cohort B 50 mg BID (n = 9)): 0
TEAE Arthropod bite, n patients (Cohort B 50 mg BID (n = 9)): 0
TEAE Back pain, n patients (Cohort B 50 mg BID (n = 9)): 0
TEAE Blood creatine phosphokinase increased, n patients (Cohort B 50 mg BID (n = 9)): 1
TEAE Blood creatinine increased, n patients (Cohort B 50 mg BID (n = 9)): 0
TEAE Cough, n patients (Cohort B 50 mg BID (n = 9)): 0
TEAE Dermatitis contact, n patients (Cohort B 50 mg BID (n = 9)): 2
TEAE Dry eye, n patients (Cohort B 50 mg BID (n = 9)): 0
TEAE Fatigue, n patients (Cohort B 50 mg BID (n = 9)): 0
TEAE Fluid overload, n patients (Cohort B 50 mg BID (n = 9)): 1
TEAE Gingival pain, n patients (Cohort B 50 mg BID (n = 9)): 0
TEAE Hyperkalemia, n patients (Cohort B 50 mg BID (n = 9)): 1
TEAE Infusion site erythema, n patients (Cohort B 50 mg BID (n = 9)): 1
TEAE Nasopharyngitis, n patients (Cohort B 50 mg BID (n = 9)): 0
TEAE Rash, n patients (Cohort B 50 mg BID (n = 9)): 1
TEAE Renal failure, n patients (Cohort B 50 mg BID (n = 9)): 0
TEAE Renal impairment, n patients (Cohort B 50 mg BID (n = 9)): 0
TEAE Testicular pain, n patients (Cohort B 50 mg BID (n = 9)): 0
TEAE Troponin increased, n patients (Cohort B 50 mg BID (n = 9)): 0
TEAE Ventricular tachycardia, n patients (Cohort B 50 mg BID (n = 9)): 1
Number of patients with any AE leading to death (Cohort D 100 mg BID (n = 6)): 0
Number of patients with any TEAE (Cohort D 100 mg BID (n = 6)): 4
Number of patients with any TEAE leading to permanent treatment discontinuation (Cohort D 100 mg BID (n = 6)): 0
Number of patients with any serious TEAE (Cohort D 100 mg BID (n = 6)): 0
TEAE Abdominal discomfort, n patients (Cohort D 100 mg BID (n = 6)): 0
TEAE Alanine aminotransferase increased, n patients (Cohort D 100 mg BID (n = 6)): 0
TEAE Anemia, n patients (Cohort D 100 mg BID (n = 6)): 0
TEAE Application site erosion, n patients (Cohort D 100 mg BID (n = 6)): 0
TEAE Arthralgia, n patients (Cohort D 100 mg BID (n = 6)): 0
TEAE Arthropod bite, n patients (Cohort D 100 mg BID (n = 6)): 1
TEAE Back pain, n patients (Cohort D 100 mg BID (n = 6)): 0
TEAE Blood creatine phosphokinase increased, n patients (Cohort D 100 mg BID (n = 6)): 0
TEAE Blood creatinine increased, n patients (Cohort D 100 mg BID (n = 6)): 1
TEAE Cough, n patients (Cohort D 100 mg BID (n = 6)): 0
TEAE Dermatitis contact, n patients (Cohort D 100 mg BID (n = 6)): 0
TEAE Dry eye, n patients (Cohort D 100 mg BID (n = 6)): 0
TEAE Fatigue, n patients (Cohort D 100 mg BID (n = 6)): 0
TEAE Fluid overload, n patients (Cohort D 100 mg BID (n = 6)): 0
TEAE Gingival pain, n patients (Cohort D 100 mg BID (n = 6)): 1
TEAE Hyperkalemia, n patients (Cohort D 100 mg BID (n = 6)): 0
TEAE Infusion site erythema, n patients (Cohort D 100 mg BID (n = 6)): 0
TEAE Nasopharyngitis, n patients (Cohort D 100 mg BID (n = 6)): 0
TEAE Rash, n patients (Cohort D 100 mg BID (n = 6)): 0
TEAE Renal failure, n patients (Cohort D 100 mg BID (n = 6)): 0
TEAE Renal impairment, n patients (Cohort D 100 mg BID (n = 6)): 0
TEAE Testicular pain, n patients (Cohort D 100 mg BID (n = 6)): 0
TEAE Troponin increased, n patients (Cohort D 100 mg BID (n = 6)): 1
TEAE Ventricular tachycardia, n patients (Cohort D 100 mg BID (n = 6)): 1
QTc (MAD cohorts): No increase in QTc
patients with TEAEs (MAD cohorts, Compound I patients): 17 (57%) n (%)
patients with transient and asymptomatic increase in troponin I or hs-troponin T (MAD cohorts, all doses): 7 (23%) n (%)
Number of patients with any AE leading to death (Total Compound I (n = 30)): 0
Number of patients with any TEAE (Total Compound I (n = 30)): 17
Number of patients with any TEAE leading to permanent treatment discontinuation (Total Compound I (n = 30)): 0
Number of patients with any serious TEAE (Total Compound I (n = 30)): 1
TEAE Abdominal discomfort, n patients (Total Compound I (n = 30)): 1
TEAE Alanine aminotransferase increased, n patients (Total Compound I (n = 30)): 2
TEAE Anemia, n patients (Total Compound I (n = 30)): 1
TEAE Application site erosion, n patients (Total Compound I (n = 30)): 1
TEAE Arthralgia, n patients (Total Compound I (n = 30)): 0
TEAE Arthropod bite, n patients (Total Compound I (n = 30)): 1
TEAE Back pain, n patients (Total Compound I (n = 30)): 0
TEAE Blood creatine phosphokinase increased, n patients (Total Compound I (n = 30)): 1
TEAE Blood creatinine increased, n patients (Total Compound I (n = 30)): 1
TEAE Cough, n patients (Total Compound I (n = 30)): 1
TEAE Dermatitis contact, n patients (Total Compound I (n = 30)): 2
TEAE Dry eye, n patients (Total Compound I (n = 30)): 0
TEAE Fatigue, n patients (Total Compound I (n = 30)): 2
TEAE Fluid overload, n patients (Total Compound I (n = 30)): 1
TEAE Gingival pain, n patients (Total Compound I (n = 30)): 1
TEAE Hyperkalemia, n patients (Total Compound I (n = 30)): 1
TEAE Infusion site erythema, n patients (Total Compound I (n = 30)): 1
TEAE Nasopharyngitis, n patients (Total Compound I (n = 30)): 0
TEAE Rash, n patients (Total Compound I (n = 30)): 1
TEAE Renal failure, n patients (Total Compound I (n = 30)): 0
TEAE Renal impairment, n patients (Total Compound I (n = 30)): 0
TEAE Testicular pain, n patients (Total Compound I (n = 30)): 0
TEAE Troponin increased, n patients (Total Compound I (n = 30)): 2
TEAE Ventricular tachycardia, n patients (Total Compound I (n = 30)): 2
ventricular arrhythmias (Holter monitoring) (compared with placebo): no increase in ventricular arrhythmias
systolic blood pressure (higher concentration group): decrease
serious AE, one patient (not considered related to study treatment): hyperkalemia
